{"source": "DBAASP", "experiment_in_all_cases": "≥ marks a high value that may be exact or a test limit, other limits are often not marked, values filed in µg/mL are converted to µM", "key": {"[1]": {"tested_on": "Escherichia coli ATCC 25922"}, "[2]": {"tested_on": "Staphylococcus aureus FDA 209P"}, "[3]": {"tested_on": "Staphylococcus aureus ATCC 29213"}, "[4]": {"tested_on": "Pseudomonas aeruginosa 73"}, "[5]": {"tested_on": "Staphylococcus aureus 75"}, "[6]": {"tested_on": "Pseudomonas aeruginosa ATCC 9027"}, "[7]": {"tested_on": "Staphylococcus epidermidis ATCC 12228"}, "[8]": {"tested_on": "Escherichia coli 780"}, "[9]": {"tested_on": "Acinetobacter baumannii 9931"}, "[10]": {"tested_on": "Acinetobacter baumannii ATCC 19606"}, "[11]": {"tested_on": "Staphylococcus aureus 113"}, "[12]": {"tested_on": "Pseudomonas aeruginosa 50"}, "[13]": {"tested_on": "Acinetobacter baumannii 97830"}, "[14]": {"tested_on": "Escherichia coli 804"}, "[15]": {"tested_on": "Bacillus subtilis ATCC 23857"}, "[16]": {"tested_on": "Pseudomonas aeruginosa ATCC 27853"}, "[17]": {"tested_on": "Klebsiella pneumoniae ATCC 700603"}, "[18]": {"tested_on": "Acinetobacter baumannii ATCC 7978"}, "[19]": {"tested_on": "Enterococcus faecium E007"}, "[20]": {"tested_on": "Pseudomonas aeruginosa PA14"}, "[21]": {"tested_on": "Staphylococcus aureus ATCC 29231"}, "[22]": {"tested_on": "Salmonella typhimurium DSM 19587"}, "[23]": {"tested_on": "Listeria monocytogenes SLCC 5581"}, "[24]": {"tested_on": "Bacillus cereus DSM 4312"}, "[25]": {"tested_on": "Clostridium perfringens DSM 11784"}, "[26]": {"tested_on": "Escherichia coli NCTC 13452"}, "[27]": {"tested_on": "Bacillus cereus DSM 4222"}, "[28]": {"tested_on": "Staphylococcus aureus DSM 2569"}, "[29]": {"tested_on": "Listeria monocytogenes"}, "[30]": {"tested_on": "Pseudomonas putida DSM 291"}, "[31]": {"tested_on": "Pseudomonas fluorescens DSM 50124"}, "[32]": {"tested_on": "Staphylococcus aureus ATCC 3300"}, "[33]": {"tested_on": "Clostridium perfringens ATCC 13124"}, "[34]": {"tested_on": "Escherichia coli NEB5alpha"}, "[35]": {"tested_on": "Escherichia coli ATCC 35150"}, "[36]": {"tested_on": "Salmonella enterica subsp. enterica serovar Typhimurium DSM 554"}, "[37]": {"tested_on": "Bacillus subtilis ATCC 6051"}, "[38]": {"tested_on": "Aeromonas hydrophila"}, "[39]": {"tested_on": "Edwardsiella tarda ATCC 15947"}, "[40]": {"tested_on": "Escherichia coli ATCC 8739"}, "[41]": {"tested_on": "Vibrio parahaemolyticus ATCC 17802"}, "[42]": {"tested_on": "Aeromonas salmonicida"}, "[43]": {"tested_on": "Staphylococcus epidermidis ATCC 35984"}, "[44]": {"tested_on": "Staphylococcus aureus ATCC 33592"}, "[45]": {"tested_on": "Syspastospora parasitica"}}}
{"smiles": "CC[C@H](C)[C@H](NC(=O)[C@H](CCSC)NC(=O)[C@H](CCCCN)NC(=O)[C@@H](NC(=O)[C@H](C)NC(=O)CNC(=O)[C@H](CCCCN)NC(=O)[C@@H](NC(=O)[C@H](CC(C)C)NC(=O)[C@@H](NC(=O)[C@H](Cc1ccccc1)NC(=O)[C@H](CC(C)C)NC(=O)CN)[C@@H](C)O)[C@@H](C)CC)C(C)C)C(=O)NCC(=O)N[C@@H](CCCCN)C(=O)N[C@H](C(=O)N[C@H](C(=O)N[C@@H](C)C(=O)N[C@@H](CCCCN)C(=O)N[C@@H](CCC(=O)O)C(=O)N[C@@H](C)C(=O)NCC(=O)N[C@@H](CCCCN)C(=O)N[C@H](C(=O)NCC(=O)N[C@@H](CC(C)C)C(=O)N[C@@H](CCC(=O)O)C(=O)N[C@@H](CC(C)C)C(=O)N[C@@H](CCSC)C(=O)N[C@@H](C)C(=O)N[C@H]1CSSC[C@@H](C(=O)O)NC(=O)[C@H](CCC(N)=O)NC(=O)[C@H](CC(N)=O)NC(=O)[C@H]([C@@H](C)O)NC(=O)[C@H](C(C)C)NC(=O)[C@H](CCCCN)NC1=O)[C@@H](C)O)C(C)C)[C@@H](C)O", "note": "[GLFTLIKGAVKMIGKTVAKEAGKTGLELMACKVTNQC]", "values": [{"measurement": "MIC", "setting": "[1]", "value": 1.1, "unit": "µM"}, {"measurement": "MIC", "setting": "[2]", "value": 2.6, "unit": "µM"}]}
{"smiles": "NCC(=O)N[C@@H](CCCN=C(N)N)C(=O)N[C@@H](CCCN=C(N)N)C(=O)N[C@@H](Cc1c[nH]c2ccccc12)C(=O)N[C@@H](Cc1c[nH]c2ccccc12)C(=O)N[C@@H](Cc1c[nH]c2ccccc12)C(=O)N[C@@H](CCCN=C(N)N)C(=O)N[C@@H](CCCN=C(N)N)C(=O)NCC(N)=O", "note": "[GRRWWWRRG]", "values": [{"measurement": "MIC", "setting": "[3]", "value": 2, "unit": "µM"}, {"measurement": "MIC", "setting": "[4]", "value": "≥ 128", "unit": "µM"}, {"measurement": "MIC", "setting": "[5]", "value": 8, "unit": "µM"}, {"measurement": "MIC", "setting": "[6]", "value": 128, "unit": "µM"}, {"measurement": "MIC", "setting": "[7]", "value": 4, "unit": "µM"}, {"measurement": "MIC", "setting": "[8]", "value": "≥ 32", "unit": "µM"}, {"measurement": "MIC", "setting": "[9]", "value": "≥ 64", "unit": "µM"}, {"measurement": "MIC", "setting": "[10]", "value": 128, "unit": "µM"}, {"measurement": "MIC", "setting": "[11]", "value": 8, "unit": "µM"}, {"measurement": "MIC", "setting": "[12]", "value": "≥ 128", "unit": "µM"}, {"measurement": "MIC", "setting": "[13]", "value": "≥ 128", "unit": "µM"}, {"measurement": "MIC", "setting": "[14]", "value": "≥ 32", "unit": "µM"}, {"measurement": "MIC", "setting": "[15]", "value": 4, "unit": "µM"}, {"measurement": "MIC", "setting": "[16]", "value": "> 128", "unit": "µM"}, {"measurement": "MIC", "setting": "[17]", "value": 128, "unit": "µM"}]}
{"smiles": "CC[C@H](C)[C@H](NC(=O)[C@H](CCCCN)NC(=O)[C@H](Cc1c[nH]c2ccccc12)NC(=O)[C@@H](N)CC(C)C)C(=O)NCC(=O)N[C@@H](CCCCN)C(=O)N[C@@H](CCCCN)C(=O)N[C@H](C(=O)N[C@@H](Cc1c[nH]c2ccccc12)C(=O)N[C@@H](CCCN=C(N)N)C(=O)N[C@H](C(=O)N[C@@H](CC(C)C)C(=O)N[C@@H](Cc1c[nH]c2ccccc12)C(=O)N[C@@H](CC(N)=O)C(=O)N[C@@H](Cc1c[nH]c2ccccc12)C(=O)N[C@@H](CCCN=C(N)N)C(=O)O)C(C)C)[C@@H](C)CC", "note": "[LWKIGKKIWRVLWNWR]", "values": [{"measurement": "MIC", "setting": "[18]", "value": 7.33, "unit": "µM"}, {"measurement": "MIC", "setting": "[19]", "value": "≥ 58.6", "unit": "µM"}, {"measurement": "MIC", "setting": "[20]", "value": 14.7, "unit": "µM"}, {"measurement": "MIC", "setting": "[21]", "value": 1.83, "unit": "µM"}]}
{"smiles": "CC[C@H](C)[C@H](NC(=O)[C@@H](N)CCCN=C(N)N)C(=O)N[C@@H](CCCCN)C(=O)N[C@H](C(=O)N[C@H](C(=O)N[C@H](C(=O)N[C@@H](CO)C(=O)N[C@@H](Cc1ccccc1)C(=O)N[C@@H](CC(=O)O)C(=O)N[C@@H](CC(C)C)C(=O)N1CCC[C@H]1C(=O)N[C@@H](C)C(=O)N[C@@H](CC(C)C)C(=O)N[C@@H](CCCN=C(N)N)C(=O)N[C@@H](Cc1ccccc1)C(=O)N[C@@H](CC(C)C)C(=O)N[C@@H](CCCCN)C(=O)N[C@@H](CC(C)C)C(=O)O)[C@@H](C)O)C(C)C)[C@@H](C)O", "note": "[RIKTVTSFDLPALRFLKL]", "values": [{"measurement": "MIC", "setting": "[22]", "value": "≥ 1000", "unit": "µM"}, {"measurement": "MIC", "setting": "[23]", "value": "≥ 500", "unit": "µM"}, {"measurement": "MIC", "setting": "[24]", "value": "≥ 1000", "unit": "µM"}, {"measurement": "MIC", "setting": "[25]", "value": "≥ 1000", "unit": "µM"}, {"measurement": "MIC", "setting": "[26]", "value": "≥ 125", "unit": "µM"}, {"measurement": "MIC", "setting": "[27]", "value": "≥ 1000", "unit": "µM"}, {"measurement": "MIC", "setting": "[28]", "value": "≥ 500", "unit": "µM"}, {"measurement": "MIC", "setting": "[29]", "value": "≥ 250", "unit": "µM"}, {"measurement": "MIC", "setting": "[30]", "value": "≥ 125", "unit": "µM"}, {"measurement": "MIC", "setting": "[31]", "value": "≥ 500", "unit": "µM"}, {"measurement": "MIC", "setting": "[32]", "value": "≥ 500", "unit": "µM"}, {"measurement": "MIC", "setting": "[33]", "value": "≥ 125", "unit": "µM"}, {"measurement": "MIC", "setting": "[34]", "value": "≥ 62.5", "unit": "µM"}, {"measurement": "MIC", "setting": "[35]", "value": "≥ 500", "unit": "µM"}, {"measurement": "MIC", "setting": "[36]", "value": "≥ 1000", "unit": "µM"}, {"measurement": "MIC", "setting": "[37]", "value": 15.6, "unit": "µM"}]}
{"smiles": "NC(=O)[C@H](Cc1ccc(O)cc1)NC(=O)[C@H](Cc1c[nH]c2ccccc12)NC(=O)[C@H](CCCN=C(N)N)NC(=O)[C@H](CCCN=C(N)N)NC(=O)[C@H](Cc1ccc(O)cc1)NC(=O)[C@H](Cc1c[nH]c2ccccc12)NC(=O)[C@H](CCCN=C(N)N)NC(=O)[C@H](CCCN=C(N)N)NC(=O)[C@H](Cc1ccc(O)cc1)NC(=O)[C@H](Cc1c[nH]c2ccccc12)NC(=O)[C@H](CCCN=C(N)N)NC(=O)[C@@H](N)CCCN=C(N)N", "note": "[RRWYRRWYRRWY]", "values": [{"measurement": "MIC", "setting": "[38]", "value": "≥ 125", "unit": "µM"}, {"measurement": "MIC", "setting": "[39]", "value": "≥ 62.5", "unit": "µM"}, {"measurement": "MIC", "setting": "[6]", "value": 0.49, "unit": "µM"}, {"measurement": "MIC", "setting": "[40]", "value": 7.81, "unit": "µM"}, {"measurement": "MIC", "setting": "[41]", "value": "≥ 125", "unit": "µM"}, {"measurement": "MIC", "setting": "[42]", "value": "≥ 500", "unit": "µM"}, {"measurement": "MIC", "setting": "[43]", "value": 15.6, "unit": "µM"}, {"measurement": "MIC", "setting": "[44]", "value": 31.2, "unit": "µM"}, {"measurement": "MIC", "setting": "[45]", "value": 7.81, "unit": "µM"}]}
